How the values were obtained:
[1] = system: Pancreatic Panc-1 cancer cells; test: Alamar Blue readout on Panc-1 cells in three-dimensional matrices, late-stage treatment with or without drug-free recovery; assay type: cell-based
Description: The “early-stage” comprises two time points for readout. The first point of time at day seven is at the end of the drug treatment, whereas the second point in time at day eleven follows a drug-free recovery phase. The “late-stage” comprises two time points for readout. The first point in time at day seventeen is at the end of a second (independent from “early-stage”) drug treatment phase. The second point in time at day twenty-one follows a drug-free recovery phase. Measurements at additional points in time can be performed before the start of treatment and/or after different drug-free recovery phases. […] The dose-dependant efficacy profiles for “late-stage” treatment with Gemcitabine on pancreatic cancer cells culture in three-dimensional matrices were measured according to Alamar Blue® readout before and after the drug-free recovery period of four to seven, days.

[2] = system: Pancreatic Panc-1 cancer cells; test: Two-dimensional reference assay on pancreatic cancer cells; assay type: cell-based
Procedure: For reference two-dimensional assays, cells are normally tested with drugs within the logarithmic proliferations phase between day one to four (FIG. 9). […] The dose-dependant efficacy profiles for “late-stage” treatment with Gemcitabine on pancreatic cancer cells culture in three-dimensional matrices were measured according to Alamar Blue® readout before and after the drug-free recovery period of four to seven, days.

[3] = system: Colon cancer HCT 116 cells; test: Alamar Blue metabolic readout on colonies of HCT 116 cells in a three-dimensional matrix, early-/late-stage treatment schedule; assay type: cell-based; conditions: for Hit in drug screening (metabolic readout, Alamar Blue): 10 μM
Procedure: An example is given comprising an “early-” and a “late-stage” drug treatment for cells grown in three-dimensional matrices. Conditions of different cancer stages are identified, derived from profiling assays, as in FIG. 1, and schedules for drug screening are determined accordingly. Here, different cancer stages for cells cultured in three-dimensional matrices are determined as “early-” and “late-stage” cancer treatment.
The “early-stage” comprises two time points for readout. The first point of time at day seven is at the end of the drug treatment, whereas the second point in time at day eleven follows a drug-free recovery phase. The “late-stage” comprises two time points for readout. The first point in time at day seventeen is at the end of a second (independent from “early-stage”) drug treatment phase. The second point in time at day twenty-one follows a drug-free recovery phase. Measurements at additional points in time can be performed before the start of treatment and/or after different drug-free recovery phases.
In contrary, the “late-stage” illustrates existence of larger spheroids with a diameter of 155 μm, low cell proliferation (shown in FIG. 9), and presence of hypoxic condition (FIG. 1C). In both cases, the readouts are performed immediately after treatment end to test immediate drug efficacy, and after a four-day drug-free period to test recurrence of “mini-tumour” growth and/or retarded drug effects as the case observed with Gemcitabine (FIG. 10).
As an example for “Hit” generation a selection of drugs from a commercially available drug library (Prestwick) is used. In A) the effect of sixty drugs on cancer cells measured by metabolic readout (Alamar Blue®) is shown. […]
In FIG. 4 the determination of the half maximal inhibitory concentration (IC50) as an Alamar Blue® readout of selected “Hits” in FIG. 2, example 5-Fluorouracil (5-FU), on colonies of Colon cancer HCT 116 cells is shown. The readout was performed immediately after “early-” and “late-stage” treatments of cells in a three-dimensional matrix. […]

[4] = system: Colon cancer HCT 116 cells; test: Image-based analysis of cancer cell spheroid size in a three-dimensional matrix after early-/late-stage treatment; conditions: early-stage treatment, IC50 and 1 mM
Procedure: In FIG. 3B an image-based analysis quantifying the distribution of diameter sizes of cell colonies, specifically cancer spheroids measured immediately after “early-” and “late-stage” treatment is shown as an example of a selection of drugs from FIG. 3 A at a drug concentration of 10 μM. Filled curves correspond to “hits” and unfilled curves are “no Hits” as determined using metabolic readouts at the ends of “early stage” and “late-stage” (Positive control: Cells treated with copper sulphate; negative control; Cells treated with DMSO).
In FIG. 4 the determination of the half maximal inhibitory concentration (IC50) as an Alamar Blue® readout of selected “Hits” in FIG. 2, example 5-Fluorouracil (5-FU), on colonies of Colon cancer HCT 116 cells is shown. The readout was performed immediately after “early-” and “late-stage” treatments of cells in a three-dimensional matrix. […] The IC50 curves obtained with two-dimensional reference assays are often similar to “early-stage” treatment conditions of the present invention (three-dimensional). This is also shown in the drug screening correlation of most “Hits” observed with the two assay methods in FIG. 3 A (upper panel). In FIG. 4 B an image-based analysis of cancer cell spheroids grown in a three-dimensional matrix after “early-” and “late-stage” treatment at selected drug concentrations, IC50 and 1 mM, are shown.

Potency (IC50 shift) from early to late treatment ([3]; late-stage versus early-stage treatment, readout immediately after treatment, three-dimensional matrix) | Compound | Cell growth inhibition (dose-dependent efficacy, Alamar Blue) ([1]; measured after drug-free recovery period of four to seven days) | Activity (dose-dependent efficacy, Alamar Blue) ([1]; measured immediately after the treatment) | Activity (dose-dependent efficacy) [2] | Hit in drug screening (metabolic readout, Alamar Blue) ([3]; triplicate, selected Hit of the screening campaign, stage not stated) | Hit in drug screening (metabolic readout, Alamar Blue) ([3]; late-stage treatment, three-dimensional matrix) | Inhibition of spheroid growth [4]
 | Nc1ccn([C@@H]2O[C@H](CO)[C@@H](O)C2(F)F)c(=O)n1 [Gemcitabine] | potent cell growth inhibitor | not shown to be active | not shown to be active |  |  | 
less potent | O=c1[nH]cc(F)c(=O)[nH]1 [5-FU, 5-Fluorouracil] |  |  |  | Hits | no Hit | strong inhibition
